Common to all, as to type: functional, organism-based
The subject of one test is Human alphaherpesvirus 1. Description: Antiviral activity against HSV1.
In a further test the test system is Human alphaherpesvirus 2. Description: Antiviral activity against HSV2.
In test [1] the test system is Human immunodeficiency virus 1. Briefly: Antiviral activity against HIV1.

SMILES strings stand for the structures.

On to `Nc1nc2c(ncn2COCCO)c(=O)[nH]1` [ACYCLOVIR], for which the EC50 in the test on Human alphaherpesvirus 1 came to 1.1 µM; with Human alphaherpesvirus 2 it was 1 µM.

As for `O=C(O[C@H]1[C@H](Oc2ccccc2COC(=O)[C@]2(O)C=CCC[C@@H]2O)O[C@H](CO)[C@@H](O)[C@@H]1O)c1ccccc1` [TREMULACINOL], the EC50 in the test with Human alphaherpesvirus 1 and with Human alphaherpesvirus 2 was over 188 µM in each case.

Molecule `Cc1cn([C@H]2C[C@H](N=[N+]=[N-])[C@@H](CO)O2)c(=O)[nH]c1=O` [ZIDOVUDINE] returned an EC50 in test [1] of 0.02 µM.

As for `O=C(O[C@H]1[C@H](Oc2ccccc2COC(=O)C2(O)C=CCCC2=O)O[C@H](CO)[C@@H](O)[C@@H]1O)c1ccccc1` (stereo partly specified) [TREMULACIN], the EC50 in the test on Human alphaherpesvirus 1 was determined as 87 µM; in test [1] it was 52 µM; in the test with Human alphaherpesvirus 2, 86 µM.

Consider `O=C1OC2=C[C@@H](O)CCC2=C1C(O)c1ccccc1` (stereo partly specified) [COCHINOLIDE], for which the EC50 in the test with Human alphaherpesvirus 1 was determined as 31 µM; in the test with Human alphaherpesvirus 2, 86 µM.

As for `O=C(O[C@H]1[C@H](Oc2ccccc2CO)O[C@H](CO)[C@@H](O)[C@@H]1O)c1ccccc1` [TREMULDIN], the concentration giving a half-maximal response (EC50) in the test on Human alphaherpesvirus 1 and in the test with Human alphaherpesvirus 2 was over 256 µM throughout.

For `O=C(O[C@H]1[C@H](Oc2c(O)cccc2COC(=O)C2(O)C=CCCC2=O)O[C@H](CO)[C@@H](O)[C@@H]1O)c1ccccc1` (stereo partly specified) [COCHINCHISIDE B], the EC50 with Human alphaherpesvirus 1 was 76 µM; in test [1] it was over 18 µM; in the test on Human alphaherpesvirus 2 it was 76 µM.

In turn, `O=c1[nH]cnc2c1ncn2[C@H]1CC[C@@H](CO)O1` [DIDANOSINE] registered a half-maximal effective concentration (EC50) in test [1] of 2.1 µM.

A word on the EC50: it is the concentration that produces a half-maximal response. Read a low EC50 as a more potent agent.

For the origin of these results see ChEMBL document CHEMBL1151179, “Isolation of salicin derivatives from Homalium cochinchinensis and their antiviral activities” (J Nat Prod, 2004).
